This note sets out measurements from PMC10035904, “Synthesis of novel sulphamethoxazole derivatives and exploration of their anticancer and antimicrobial properties” (PLOS ONE, 2023).

By melting point is commonly meant the temperature, or range, at which the solid turns liquid.

The first data set relates to HF, PPC-1, and CaKi-1 cells. Briefly: MTT cell viability screen at 100 μM (cell line not given). In kind it is cell-based, human. To be noted: 72 h, cell line not stated. On the procedure:
The effect of synthesized compounds on cell viability was studied using 3-(4,5-dimethylthiazol-2-yl)-2,5-diphenyltetrazolium bromide (MTT; Sigma-Aldrich Co., St Louis, MO, USA) assay, as described elsewhere. Briefly, HF, PPC-1, and CaKi-1 cells were seeded in 96-well plates (Corning) in triplicates at a volume of 100 μL at a concentration of 4 × 10^3 cells/well. After 24 h of incubation, the cells were treated with 100 μM of tested compounds. After 72 h, the MTT reagent (at 0.5 mg/mL concentration) has been added to the wells, and cells were incubated for 4 h. Then the medium was aspirated, and the formed purple crystals were dissolved in 100 μL DMSO (Sigma-Aldrich Co.). The absorbance was measured at 570 and 630 nm using a multi-detection microplate reader. The compound effect on cell viability was calculated using a formula (1): Relativecellviability%=A−A0/ANC−A0 (1) Where: […]
For `Cc1cc(NS(=O)(=O)c2ccc(NCCC(=O)NN=Cc3ccc([N+](=O)[O-])s3)cc2)no1` [Compound 16d, N-(5-methylisoxazol-3-yl)-4-((3-(2-((5-nitrothiophen-2-yl)methylene)hydrazineyl)-3-oxopropyl)amino)-benzenesulfonamide], the “reduced cell viability up to about” value was “about 40%”.
Turning to `Cc1cc(NS(=O)(=O)c2ccc(NCCC(=O)NN=Cc3ccccc3Cl)cc2)no1` [Compound 15e, 4-((3-(2-(2-Chlorobenzylidene)hydrazineyl)-3-oxopropyl)amino)-N-(5-methylisoxazol-3-yl)benzene-sulfonamide], the “reduced cell viability up to about” value is “about 40%”.

Test system in a further data set: not given
Test: not given
Details: not given
Compound `Cc1cc(NS(=O)(=O)c2ccc(NCCC(=O)NN=Cc3ccc([N+](=O)[O-])cc3)cc2)no1` [Compound 15j, 4-((3-(2-(4-Nitrobenzylidene)hydrazineyl)-3-oxopropyl)amino)-N-(5-methylisoxazol-3-yl)benzene-sulfonamide] came in with a melting point of 214 to 215 °C.
`Cc1cc(NS(=O)(=O)c2ccc(NCCc3n[nH]c(=S)n3-c3ccccc3)cc2)no1` [Compound 13, N-(5-methylisoxazol-3-yl)-4-((2-(4-phenyl-5-thioxo-4,5-dihydro-1H-1,2,4-triazol-3-yl)ethyl)amino)-benzenesulfonamide] returned a melting point of 222 to 223 °C.
`Cc1cc(NS(=O)(=O)c2ccc(NCCC(=O)NNC(=O)Nc3ccccc3)cc2)no1` [Compound 10, 2-(3-((4-(N-(5-methylisoxazol-3-yl)sulfamoyl)phenyl)amino)propanoyl)-N-phenylhydrazine-1-carboxamide] had a melting point of 204 to 205 °C.
Still for that read-out and setting: the figure for `Cc1cc(NS(=O)(=O)c2ccc(NCCC(=O)NN=Cc3ccc([N+](=O)[O-])s3)cc2)no1` [Compound 16d, N-(5-methylisoxazol-3-yl)-4-((3-(2-((5-nitrothiophen-2-yl)methylene)hydrazineyl)-3-oxopropyl)amino)-benzenesulfonamide] is 195 to 196 °C.
Same read-out and setting: the figure for `Cc1cc(NS(=O)(=O)c2ccc(NCCC(=O)NN=Cc3ccco3)cc2)no1` [Compound 16a, 4-((3-(2-(Furan-2-ylmethylene)hydrazineyl)-3-oxopropyl)amino)-N-(5-methylisoxazol-3-yl)benzene-sulfonamide] is 185 to 186 °C.
Regarding `Cc1cc(C)n(C(=O)CCNc2ccc(S(=O)(=O)Nc3cc(C)on3)cc2)n1` [Compound 9, 4-((3-(3,5-Dimethyl-1H-pyrazol-1-yl)-3-oxopropyl)amino)-N-(5-methylisoxazol-3-yl)benzenesulfonamide], the melting point is 144 to 145 °C.
The same measure, in the same setting: for `Cc1cc(NS(=O)(=O)c2ccc(NCCc3n[nH]c(=O)n3-c3ccccc3)cc2)no1` [Compound 12, N-(5-methylisoxazol-3-yl)-4-((2-(5-oxo-4-phenyl-4,5-dihydro-1H-1,2,4-triazol-3-yl)ethyl)amino)-benzenesulfonamide] the value was 188 to 189 °C; for `Cc1cc(NS(=O)(=O)c2ccc(NCCC(=O)NN=Cc3ccc(O)cc3)cc2)no1` [Compound 15c, 4-((3-(2-(4-Hydroxybenzylidene)hydrazineyl)-3-oxopropyl)amino)-N-(5-methylisoxazol-3-yl)benzene-sulfonamide], 218 to 219 °C.
On the same count and under the same terms, the figure for `COC(=O)CCNc1ccc(S(=O)(=O)Nc2cc(C)on2)cc1` [Compound 3, Methyl 3-((4-(N-(5-methylisoxazol-3-yl)sulfamoyl)phenyl)amino)propanoate] is 148 to 149 °C; for `Cc1cc(NS(=O)(=O)c2ccc(NCCC(=O)NN=Cc3cccc([N+](=O)[O-])c3)cc2)no1` [Compound 15h, 4-((3-(2-(3-Nitrobenzylidene)hydrazineyl)-3-oxopropyl)amino)-N-(5-methylisoxazol-3-yl)benzene-sulfonamide] it is 208 to 209 °C; for `Cc1cc(NS(=O)(=O)c2ccc(NCCC(=O)NNC(=S)Nc3ccccc3)cc2)no1` [Compound 11, 2-(3-((4-(N-(5-methylisoxazol-3-yl)sulfamoyl)phenyl)amino)propanoyl)-N-phenylhydrazine-1-carbothioamide] it is 183 to 184 °C.
Still for that read-out and setting: for `Cc1cc(NS(=O)(=O)c2ccc(NCCC(=O)O)cc2)no1` [Compound 2, 3-((4-(N-(5-methylisoxazol-3-yl)sulfamoyl)phenyl)amino)propanoic acid] the value was 188 to 189 °C; for `Cc1cc(NS(=O)(=O)c2ccc(N(CCC(=O)O)C(N)=S)cc2)no1` [Compound 6a, 3-(1-(4-(N-(5-methylisoxazol-3-yl)sulfamoyl)phenyl)thioureido)propanoic acid], 182 to 183 °C.
In turn, `Cc1cc(NS(=O)(=O)c2ccc(NCCC(=O)NN=Cc3cccs3)cc2)no1` [Compound 16c, N-(5-methylisoxazol-3-yl)-4-((3-oxo-3-(2-(thiophen-2-ylmethylene)hydrazineyl)propyl)amino)-benzenesulfonamide] came in with a melting point of 215 to 216 °C.
`Cc1cc(NS(=O)(=O)c2ccc(NCCC(=O)NN=Cc3cc([N+](=O)[O-])ccc3Cl)cc2)no1` [Compound 15i, 4-((3-(2-(2-Chloro-5-nitrobenzylidene)hydrazineyl)-3-oxopropyl)amino)-N-(5-methylisoxazol-3-yl)benzenesulfonamide] displayed a melting point of 210 to 211 °C.
Same read-out and setting: the figure for `Cc1cc(NS(=O)(=O)c2ccc(NCCC(=O)NN=C3C(=O)Nc4ccccc43)cc2)no1` [Compound 14, N-(5-methylisoxazol-3-yl)-4-((3-oxo-3-(2-(2-oxoindolin-3-ylidene)hydrazineyl)propyl)amino)-benzenesulfonamide] is 209 to 210 °C; for `Cc1cc(NS(=O)(=O)c2ccc(NC=CC(=O)Nn3c(C)ccc3C)cc2)no1` [Compound 8, N-(2,5-dimethyl-1H-pyrrol-1-yl)-3-((4-(N-(5-methylisoxazol-3-yl)sulfamoyl)phenyl)amino)propenamide] it is 118 to 119 °C; for `Cc1cc(NS(=O)(=O)c2ccc(NCCC(=O)NN=Cc3ccccc3O)cc2)no1` [Compound 15b, 4-((3-(2-(2-Hydroxybenzylidene)hydrazineyl)-3-oxopropyl)amino)-N-(5-methylisoxazol-3-yl)benzene-sulfonamide] it is 193 to 194 °C.
The same measure, in the same setting: the figure for `Cc1cc(NS(=O)(=O)c2ccc(NCCC(=O)NN=Cc3ccccc3)cc2)no1` [Compound 15a, 4-((3-(2-Benzylidenehydrazineyl)-3-oxopropyl)amino)-N-(5-methylisoxazol-3-yl)benzenesulfonamide] is 199 to 200 °C; for `Cc1cc(NS(=O)(=O)c2ccc(NCCC(=O)NN=Cc3ccccc3Cl)cc2)no1` [Compound 15e, 4-((3-(2-(2-Chlorobenzylidene)hydrazineyl)-3-oxopropyl)amino)-N-(5-methylisoxazol-3-yl)benzene-sulfonamide] it is 202 to 203 °C; for `Cc1cc(NS(=O)(=O)c2ccc(NC=CC(=O)Nc3ccc(S(N)(=O)=O)cc3)cc2)no1` [Compound 7, 3-((4-(N-(5-methylisoxazol-3-yl)sulfamoyl)phenyl)amino)-N-(4-sulfamoylphenyl)propenamide] it is 213 to 214 °C.
Same read-out and setting: the figure for `Cc1cc(NS(=O)(=O)c2ccc(NCCC(=O)NN=Cc3ccc(F)cc3)cc2)no1` [Compound 15d, 4-((3-(2-(4-Fluorobenzylidene)hydrazineyl)-3-oxopropyl)amino)-N-(5-methylisoxazol-3-yl)benzene-sulfonamide] is 213 to 214 °C; for `Cc1cc(NS(=O)(=O)c2ccc(N3CCC(=O)NC3=S)cc2)no1` [Compound 6, N-(5-methylisoxazol-3-yl)-4-(4-oxo-2-thioxotetrahydropyrimidin-1(2H)-yl)benzenesulfonamide] it is 240 to 241 °C; for `COc1ccc(C=NNC(=O)CCNc2ccc(S(=O)(=O)Nc3cc(C)on3)cc2)cc1` [Compound 15g, 4-((3-(2-(4-Methoxybenzylidene)hydrazineyl)-3-oxopropyl)amino)-N-(5-methylisoxazol-3-yl)benzene-sulfonamide] it is 206 to 207 °C.
Regarding `Cc1cc(NS(=O)(=O)c2ccc(NCCC(=O)NN=Cc3ccc(Cl)cc3)cc2)no1` [Compound 15f, 4-((3-(2-(4-Chlorobenzylidene)hydrazineyl)-3-oxopropyl)amino)-N-(5-methylisoxazol-3-yl)benzene-sulfonamide], the melting point is 210 to 211 °C.
